Laboratory results as given in ChEMBL document CHEMBL1201862, “PubChem BioAssay data set” (2004).
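Growth conditions: 96-well plates. Treatment: test compound, 48 hours, 5 concentrations. Analysis: linear interpolation between bracketing concentrations; unreached endpoints set to highest concentration. The concentration for 50% growth inhibition is given as GI50.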 Activity calls are given as the source filed them. Cut-off read from the data, not from the text of the source: active = GI50 up to about 1.1 µM and inactive = higher.

Key:
Test in all cases: NCI tumour cell line growth inhibition, 48 h
[1] = tested on: A498
[2] = tested on: HCT-116
[3] = tested on: HT-29
[4] = tested on: K562
[5] = tested on: M14
[6] = tested on: MDA-N
[7] = tested on: NCI-H460
[8] = tested on: NCI-H522
[9] = tested on: OVCAR-5
[10] = tested on: PC-3
[11] = tested on: RXF 393
[12] = tested on: SK-MEL-28
[13] = tested on: SN12C
[14] = tested on: SW-620
[15] = tested on: TK-10
[16] = tested on: U-251
[17] = tested on: NCI-H226
[18] = tested on: OVCAR-3
[19] = tested on: T47D

Measured: GI50

C[C@]12C(=O)C=CCC1=CC[C@@H]1[C@@H]2[C@H]2CC3(O)C(=O)O[C@@]4(C)[C@H]5C[C@@]6(C)[C@@H]7[C@@]2(O)[C@]1(OC[C@H]6C(=O)O5)O[C@]734 (stereo partly drawn)
inactive: [1] 54.6 µM | [2] 31.8 µM | [3] 40.1 µM | [4] 38.2 µM | [5] 28.8 µM | [6] 37.9 µM | [7] 35.8 µM | [8] 14.3 µM | [9] 29 µM | [10] 41.9 µM | [11] 20.2 µM | [12] 28.4 µM | [13] 30.1 µM | [14] 35.2 µM | [15] 93.8 µM | [16] 34.6 µM

COc1ccc2c(c1O)C13CCN(C)C(C2)C1CCC1(C3)OCCO1 (stereo not drawn)
inactive: [2] > 100 µM | [3] > 100 µM | [5] > 100 µM | [6] > 100 µM | [17] > 100 µM | [7] > 100 µM | [8] > 100 µM | [18] > 100 µM | [9] > 100 µM | [10] > 100 µM | [11] > 100 µM | [12] > 100 µM | [13] > 100 µM | [14] > 100 µM | [19] > 100 µM | [15] > 100 µM | [16] > 100 µM

COC1=CC(=O)c2c(O)c3c(c(O)c2C1=O)OC1(Oc2c(cc4cc(C)oc(=O)c4c2O)CC1O)C3O (stereo not drawn)
inactive: [1] 47.9 µM | [2] 35.6 µM | [3] 48.4 µM | [4] 42.8 µM | [5] 42.5 µM | [6] 20.8 µM | [7] 27.4 µM | [8] 25.1 µM | [18] 67.1 µM | [9] 32.7 µM | [10] 38.4 µM | [12] 46.5 µM | [13] 23.5 µM | [14] 53.7 µM | [19] 38.1 µM | [15] 50.9 µM | [16] 39.9 µM

O=c1c(Cc2ccc(Cl)cc2)nnc2sc(-c3ccc([N+](=O)[O-])cc3)nn12
inactive: [1] 20 µM | [2] 20 µM | [3] 30.1 µM | [4] 15.6 µM | [5] 16.9 µM | [6] 24.7 µM | [7] 16.1 µM | [9] 17.5 µM | [10] 20.7 µM | [11] 24.3 µM | [13] 33.5 µM | [14] 31.1 µM | [15] 25.8 µM | [16] 29 µM

O=C(CN1CCOCC1)c1ccc2[nH]c(=O)oc2c1
inactive: [1] > 100 µM | [2] > 100 µM | [3] > 100 µM | [4] > 100 µM | [5] > 100 µM | [6] > 100 µM | [17] > 100 µM | [7] > 100 µM | [18] > 100 µM | [9] > 100 µM | [10] > 100 µM | [11] > 100 µM | [12] > 100 µM | [13] > 100 µM | [14] > 100 µM | [15] > 100 µM | [16] > 100 µM

O=C(c1ccccc1)C1C(C(=O)c2ccccc2)C(c2ccccc2)N(c2ccccc2)C1c1ccccc1 (stereo not drawn)
inactive: [2] > 100 µM | [4] 46.7 µM | [5] > 100 µM | [6] > 100 µM | [17] > 100 µM | [7] > 100 µM | [8] > 100 µM | [18] > 100 µM | [9] > 100 µM | [10] > 100 µM | [11] > 100 µM | [12] > 100 µM | [13] > 100 µM | [14] > 100 µM | [19] > 100 µM | [15] > 100 µM | [16] > 100 µM

CC(NC(=O)C(N)CC(=O)O)NC(=O)N(C)C(C)(C)C (stereo not drawn)
inactive: [2] > 100 µM | [3] > 100 µM | [4] > 100 µM | [5] > 100 µM | [6] > 100 µM | [17] > 100 µM | [7] > 100 µM | [8] > 100 µM | [18] > 100 µM | [9] > 100 µM | [10] > 100 µM | [11] > 100 µM | [12] > 100 µM | [13] > 100 µM | [14] > 100 µM | [19] > 100 µM | [15] > 100 µM | [16] > 100 µM

CC1CN=C(N(C(=O)Nc2ccccc2)c2ccc(Cl)c(Cl)c2)S1 (stereo not drawn)
inactive: [1] 14.3 µM | [2] 23.1 µM | [3] 16.1 µM | [4] > 10 µM | [5] 38.7 µM | [6] > 10 µM | [7] 19.3 µM | [18] > 10 µM | [9] 34.1 µM | [10] 26.8 µM | [12] 40.6 µM | [13] 16.6 µM | [14] 30.5 µM | [19] 14.4 µM | [15] 28.2 µM | [16] > 10 µM

Cc1ccc(-c2n[nH]c(=O)n2/N=C\c2ccccc2O)cc1
inactive: [2] > 100 µM | [3] > 100 µM | [4] > 100 µM | [5] > 100 µM | [6] > 100 µM | [17] > 100 µM | [7] > 100 µM | [8] > 100 µM | [18] > 100 µM | [9] > 100 µM | [10] > 100 µM | [11] 57.8 µM | [12] > 100 µM | [13] > 100 µM | [14] > 100 µM | [19] 94 µM | [15] > 100 µM | [16] > 100 µM

CNC1C(O)C(OC2C(N)CC(N)C(OC3OC(CN)=CCC3N)C2O)OCC1(C)O (stereo not drawn)
inactive: [1] > 100 µM | [2] > 100 µM | [3] > 100 µM | [4] > 100 µM | [5] > 100 µM | [6] > 100 µM | [17] > 100 µM | [7] > 100 µM | [8] > 100 µM | [18] > 100 µM | [9] > 100 µM | [10] > 100 µM | [12] > 100 µM | [13] > 100 µM | [14] > 100 µM | [19] > 100 µM | [16] > 100 µM

COc1cc(/C=C2\CCC(C)c3c2nc(N)c(C#N)c3-c2cc(OC)c(OC)c(OC)c2)cc(OC)c1OC (stereo not drawn)
inactive: [1] > 100 µM | [2] > 100 µM | [3] 33.3 µM | [4] 28.6 µM | [5] 45.7 µM | [6] > 100 µM | [9] > 100 µM | [10] 55.1 µM | [11] 73.3 µM | [12] > 100 µM | [13] 44.4 µM | [14] 81.8 µM | [15] 75.3 µM | [16] 46 µM

CCOC(CNc1nn2c(C)nnc2s1)OCC
inactive: [1] > 100 µM | [2] > 100 µM | [3] > 100 µM | [4] > 100 µM | [5] > 100 µM | [6] > 100 µM | [17] > 100 µM | [7] > 100 µM | [8] > 100 µM | [18] > 100 µM | [9] > 100 µM | [10] > 100 µM | [11] > 100 µM | [12] > 100 µM | [13] > 100 µM | [14] > 100 µM | [15] > 100 µM | [16] > 100 µM

c1ccc2c(c1)CC1=C(O2)c2ccccc2OC1
inactive: [1] 61.1 µM | [2] 16.4 µM | [3] 31.6 µM | [5] 38.2 µM | [6] 19.1 µM | [17] 50.2 µM | [8] 19.5 µM | [18] 21.3 µM | [9] > 100 µM | [10] 38.2 µM | [13] 19.6 µM | [14] 19.8 µM | [19] 17 µM | [15] 33.2 µM | [16] 22.3 µM

C/C=C(C)/C=C/CC(C)CCC=C(C)C (stereo not drawn)
inactive: [1] > 100 µM | [2] > 100 µM | [3] > 100 µM | [4] > 100 µM | [5] > 100 µM | [6] > 100 µM | [17] > 100 µM | [7] > 100 µM | [18] > 100 µM | [9] > 100 µM | [11] > 100 µM | [12] > 100 µM | [13] > 100 µM | [14] > 100 µM | [15] > 100 µM | [16] > 100 µM

Cc1c2ccccc2cc2cccc[n+]12
inactive: [2] 37.2 µM | [3] 29.2 µM | [4] 10.4 µM | [6] 37.8 µM | [7] 35.2 µM | [8] 12.9 µM | [18] 24.4 µM | [9] 56.6 µM | [10] 30 µM | [11] 23.3 µM | [12] 25.7 µM | [13] 29.6 µM | [14] 8.34 µM | [15] 39.8 µM

c1ccc2sc(C3(N4CCCC4)CCCCCC3)cc2c1
inactive: [1] 16.6 µM | [2] 12.5 µM | [3] 4.1 µM | [4] 17.2 µM | [5] 14.8 µM | [6] 15.7 µM | [17] 21.3 µM | [7] 13.3 µM | [8] 18.7 µM | [18] 14.3 µM | [9] 11.7 µM | [11] 12.3 µM | [12] 20.4 µM | [13] 15.3 µM | [14] 16.9 µM | [15] 17.4 µM | [16] 17.2 µM

O=c1n(/N=C/c2ccccc2)c(=O)n2n1C1C=CC2CC1
inactive: [1] > 100 µM | [2] > 100 µM | [3] > 100 µM | [4] > 100 µM | [5] > 100 µM | [6] > 100 µM | [17] > 100 µM | [7] > 100 µM | [18] > 100 µM | [9] > 100 µM | [10] > 100 µM | [12] > 100 µM | [13] > 100 µM | [14] > 100 µM | [19] > 100 µM | [15] > 100 µM | [16] > 100 µM
